Reference: patent publication US9078909B2, “Tertiary amines, medicaments containing said amines, use thereof and processes for the preparation thereof” (Boehringer Ingelheim International GmbH, priority 2012, dated 2015)

Molecular target: T1, epithelial sodium channel (ENaC) (Mus musculus, UniProt Q61180+Q9WU38+Q9WU39)
T1 construct: Mouse kidney M-1 cells were cultivated in DMEM; endogenous in cells; host or cells: mouse kidney M-1 cells (cortical collecting duct line), dexamethasone-treated, on transwell filters
T1 sequence (Q61180 1-699): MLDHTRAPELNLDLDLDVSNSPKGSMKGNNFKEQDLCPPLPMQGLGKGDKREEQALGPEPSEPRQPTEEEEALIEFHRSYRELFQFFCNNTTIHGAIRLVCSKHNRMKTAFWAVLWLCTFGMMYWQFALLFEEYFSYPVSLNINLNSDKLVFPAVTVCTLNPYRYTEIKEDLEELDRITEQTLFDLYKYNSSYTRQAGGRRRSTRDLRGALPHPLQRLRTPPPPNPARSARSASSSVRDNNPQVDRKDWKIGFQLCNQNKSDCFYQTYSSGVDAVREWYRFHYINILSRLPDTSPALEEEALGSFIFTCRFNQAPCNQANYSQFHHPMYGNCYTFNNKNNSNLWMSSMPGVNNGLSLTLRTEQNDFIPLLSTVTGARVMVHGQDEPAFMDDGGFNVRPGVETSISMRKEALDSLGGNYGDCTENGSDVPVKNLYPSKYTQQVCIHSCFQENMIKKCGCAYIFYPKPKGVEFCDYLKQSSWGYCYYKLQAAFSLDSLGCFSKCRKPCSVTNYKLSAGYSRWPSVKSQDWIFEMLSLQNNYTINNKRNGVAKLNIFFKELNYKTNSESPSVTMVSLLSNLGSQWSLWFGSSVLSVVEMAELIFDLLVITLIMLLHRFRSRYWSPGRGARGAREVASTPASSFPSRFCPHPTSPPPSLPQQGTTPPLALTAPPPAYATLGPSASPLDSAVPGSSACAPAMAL
T1 sequence (Q9WU38 1-638): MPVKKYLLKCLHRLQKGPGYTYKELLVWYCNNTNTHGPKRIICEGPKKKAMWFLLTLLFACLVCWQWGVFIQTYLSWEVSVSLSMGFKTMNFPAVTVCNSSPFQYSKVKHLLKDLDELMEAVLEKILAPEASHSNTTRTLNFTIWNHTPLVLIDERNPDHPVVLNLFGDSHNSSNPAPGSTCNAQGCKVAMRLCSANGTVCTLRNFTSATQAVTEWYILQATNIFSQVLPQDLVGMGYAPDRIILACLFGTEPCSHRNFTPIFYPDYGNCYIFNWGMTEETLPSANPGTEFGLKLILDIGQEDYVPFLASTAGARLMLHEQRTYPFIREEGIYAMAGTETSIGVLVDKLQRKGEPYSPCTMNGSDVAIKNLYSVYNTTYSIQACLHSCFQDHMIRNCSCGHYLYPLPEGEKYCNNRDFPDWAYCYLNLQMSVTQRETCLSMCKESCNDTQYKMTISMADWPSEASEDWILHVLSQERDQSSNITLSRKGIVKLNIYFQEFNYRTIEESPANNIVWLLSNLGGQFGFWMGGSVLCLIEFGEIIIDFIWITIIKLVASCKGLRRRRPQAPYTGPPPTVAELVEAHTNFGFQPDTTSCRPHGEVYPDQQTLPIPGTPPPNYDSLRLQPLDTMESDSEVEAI
T1 sequence (Q9WU39 1-655): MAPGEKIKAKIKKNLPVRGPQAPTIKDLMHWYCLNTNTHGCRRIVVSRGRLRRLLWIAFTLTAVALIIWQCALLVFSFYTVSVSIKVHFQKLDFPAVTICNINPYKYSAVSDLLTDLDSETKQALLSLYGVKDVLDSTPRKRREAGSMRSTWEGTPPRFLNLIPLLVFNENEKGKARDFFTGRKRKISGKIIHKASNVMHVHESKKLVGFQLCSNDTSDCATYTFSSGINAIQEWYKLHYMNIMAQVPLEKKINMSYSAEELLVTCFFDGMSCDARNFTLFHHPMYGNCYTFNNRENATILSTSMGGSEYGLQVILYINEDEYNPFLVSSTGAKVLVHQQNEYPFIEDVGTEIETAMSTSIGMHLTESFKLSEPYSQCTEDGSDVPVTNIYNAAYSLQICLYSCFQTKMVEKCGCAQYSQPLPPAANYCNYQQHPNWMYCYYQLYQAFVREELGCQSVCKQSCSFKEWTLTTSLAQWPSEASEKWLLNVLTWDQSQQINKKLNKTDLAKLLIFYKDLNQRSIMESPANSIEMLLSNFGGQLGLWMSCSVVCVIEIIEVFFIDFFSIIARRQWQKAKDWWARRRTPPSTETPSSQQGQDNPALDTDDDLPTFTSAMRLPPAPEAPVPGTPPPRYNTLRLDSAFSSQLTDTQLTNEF
Assay: Ussing Chamber assay: inhibition of amiloride sensitive short circuit current (I_sc) in M-1 cells
Assay type: cell-based
Conditions: Ussing Chamber; mouse kidney M-1 cells on transwell filters; short circuit current; compound added to apical solution; 37° C.; read-out: IC50
Method: Ussing Chamber: Mouse kidney M-1 cells were cultivated in DMEM containing 5% FCS and 5 μM dexamethasone for 10 to 12 days on polyester transwell filters. Filters were inserted into a teflon-coated well-plate which fit into the in-house ussing chamber system. Prior to measurement the medium of M-1 cells was replaced with Caco-2 transport buffer (Invitrogen, Germany). During measurements, the Ussing chamber temperature was kept at 37° C. Short circuit currents (I_sc) were measured in the voltage-clamp mode using an in-house built amplifier (Boehringer Ingelheim, Biberach) with the software package Lab View for data acquisition and analysis. The transepithelial electrical resistance (TEER) was determined by the application of voltage steps of ±5 mV every 5 sec. Compounds were administered at a final concentration of 3 μM or at increasing concentrations (e.g. 1-3-10 μM) to the apical solution. At the end of each experiment the amiloride sensitive I_SC was measured by adding 3 μM amiloride to the apical compartment. Results are expressed as inhibition in percent of the amiloride effect or as IC50.
With the example compounds given above, the following IC50 values were determined in the Ussing Chamber assay: […]

Row | SMILES | IC50
1 | NC(=NC(=O)c1nc(Cl)c(N)nc1N)NC1CCN(CC(=O)Nc2cccc(S(=O)(=O)O)c2)CC1 [Example 1.20] | 17 nM
2 | NC(=NC(=O)c1nc(Cl)c(N)nc1N)NC1CCN(CC(=O)Nc2cccnc2)CC1 [Example 1.17] | 7 nM
3 | NC(=NC(=O)c1nc(Cl)c(N)nc1N)NC1CCN(CC(=O)NCc2ccc(S(N)(=O)=O)cc2)CC1 [Example 1.26] | 3 nM
4 | CCOC(=O)c1cccc(CCNC(=O)CN2CCC(NC(N)=NC(=O)c3nc(Cl)c(N)nc3N)CC2)c1 [Example 1.34] | 4 nM
5 | CN(C)CCNC(=O)c1ccccc1NC(=O)CN1CCC(NC(=N)NC(=O)c2nc(Cl)c(N)nc2N)CC1 [Example 3.1] | 19 nM
6 | NC(=NC(=O)c1nc(Cl)c(N)nc1N)NC1CCN(CC(=O)Nc2ccc(S(=O)(=O)O)cc2)CC1 [Example 1.13] | 23 nM
7 | NC(=NC(=O)c1nc(Cl)c(N)nc1N)NC1CCN(CC(=O)NCc2ccccc2)CC1 [Example 1.23] | 3 nM
8 | CN(C)CCN(C)S(=O)(=O)c1ccc(NC(=O)CN2CCC(NC(N)=NC(=O)c3nc(Cl)c(N)nc3N)CC2)cc1 [Example 1.11] | 1 nM
9 | CN(C(=O)CN1CCC(NC(N)=NC(=O)c2nc(Cl)c(N)nc2N)CC1)c1ccccc1 [Example 1.22] | 22 nM
10 | NC(=NC(=O)c1nc(Cl)c(N)nc1N)NC1CCN(CC(=O)NC2CCOCC2)CC1 [Example 1.29] | 8 nM
11 | NC(=NC(=O)c1nc(Cl)c(N)nc1N)NC1CCN(CC(=O)Nc2cccc(CN3CCOCC3)c2)CC1 [Example 1.9] | 1 nM
12 | NC(=NC(=O)c1nc(Cl)c(N)nc1N)NC1CCN(CC(=O)NC2CN3CCC2CC3)CC1 (stereo not shown) [Example 1.32] | 13 nM
13 | NC(=NC(=O)c1nc(Cl)c(N)nc1N)NC1CCN(CC(=O)Nc2ccc(CN3CCCCC3)cc2)CC1 [Example 1.8] | 1 nM
14 | CN(Cc1ccccc1)C(=O)CN1CCC(NC(N)=NC(=O)c2nc(Cl)c(N)nc2N)CC1 [Example 1.21] | 18 nM
15 | CN(C)CCN(c1ccc(NC(=O)CN2CCC(NC(N)=NC(=O)c3nc(Cl)c(N)nc3N)CC2)cc1)S(C)(=O)=O [Example 1.14] | 1 nM
16 | CC(=O)N(CCCN(C)C)c1ccc(NC(=O)CN2CCC(NC(N)=NC(=O)c3nc(Cl)c(N)nc3N)CC2)cc1 [Example 1.10] | 1 nM
17 | CCSCCNC(=O)CN1CCC(NC(N)=NC(=O)c2nc(Cl)c(N)nc2N)CC1 [Example 1.30] | 2 nM
18 | N=C(NC(=O)c1nc(Cl)c(N)nc1N)NC1CCN(CC(=O)Nc2ccccc2)CC1 [Example 1.1] | 2 nM

The next lines start with the values.

Row | IC50 | SMILES
19 | 1 nM | CCCCNC(=O)CN1CCC(NC(N)=NC(=O)c2nc(Cl)c(N)nc2N)CC1 [Example 6.6]
20 | 72 nM | CN1CCC(CN2CCC(NC(N)=NC(=O)c3nc(Cl)c(N)nc3N)CC2)CC1 [Example 4.17]
21 | 35 nM | N#CCN1CCC(NC(=N)NC(=O)c2nc(Cl)c(N)nc2N)CC1 [Example 7.1]
22 | 80 nM | NC(=NC(=O)c1nc(Cl)c(N)nc1N)NC1CCN(CC(=O)NCC(=O)O)CC1 [Example 5.2]
23 | 30 nM | NC(=NC(=O)c1nc(Cl)c(N)nc1N)NC1CCN(CC2CCCC2)CC1 [Example 4.13]
24 | 8 nM | NC(=O)c1cccc(CNC(=O)CN2CCC(NC(N)=NC(=O)c3nc(Cl)c(N)nc3N)CC2)c1 [Example 6.9]
25 | 169 nM | NC(=NC(=O)c1nc(Cl)c(N)nc1N)NC1CCN(CCCC(=O)O)CC1 [Example 5.3]
26 | 10 nM | CCS(=O)(=O)CCN1CCC(NC(N)=NC(=O)c2nc(Cl)c(N)nc2N)CC1 [Example 4.3]
27 | 147 nM | NC(=NC(=O)c1nc(Cl)c(N)nc1N)NC1CCN(CCCS(=O)(=O)O)CC1 [Example 4.23]
28 | 4 nM | CCCCOC(=O)CN1CCC(NC(N)=NC(=O)c2nc(Cl)c(N)nc2N)CC1 [Example 4.10]
29 | 53 nM | CCN1CCC(NC(N)=NC(=O)c2nc(Cl)c(N)nc2N)CC1 [Example 4.14]
30 | 3 nM | COC(=O)c1ccc(CNC(=O)CN2CCC(NC(N)=NC(=O)c3nc(Cl)c(N)nc3N)CC2)cc1 [Example 6.4]
31 | 6 nM | COC(=O)c1cccc(CNC(=O)CN2CCC(NC(N)=NC(=O)c3nc(Cl)c(N)nc3N)CC2)c1 [Example 6.5]
